# Data as given in US9981972B2, “N-hydroxy bicyclic hydantoin carbamates as tools for identification of serine hydrolase targets” (ABIDE THERAPEUTICS, INC., priority 2014, dated 2018).
# “Also recorded” adds a separate entry of the source.
# Assays:
# PPT1 (wild type, S115A) [1] = target: T1, PPT1 (wild type, S115A) (Homo sapiens, UniProt P50897); experiment: Labeling of recombinant PPT1 by probes (gel-based ABPP, isoTOP-ABPP); assay type: biochemical; settings: transfected HEK293T cell lysates, gel-based ABPP
# T1 construct: expressed in transfected cells; host or cells: HEK293T
# Experimental: (§1) HEK293T cells were seeded at 2×10^5 per well on 6 well plates and grown for 48 h. They were then transfected with mABHD3 (pCMV-Sport6), hABHD4 (pcDNA3.1/myc-his), hPPT1 (pCMV6-XL5), or hPPT1 S115A (pCMV6-XL5), by incubating 0.5 μg of DNA with 3 μL of PEI MAX (1 mg/mL, Polysciences, Inc) in serum-free DMEM for 30 min, then adding them to cells. After 48 h cells were either treated with compound in situ, as described above, or harvested for in vitro studies. The […] PPT1 mutation was introduced using QuikChange II Site Directed Mutagenesis Kit (Agilent) with the following primers: […]
# (§2) Whole cell lysates (500 μL, 1.5 mg/mL) of hPPT1 transfected HEK239Ts were processed for MS analysis using the previously described isoTOP-ABPP protocol (Weerapana et al., Nature 468, 790-795, 2010). In brief, for analysis of Compound 39-modified peptides, proteomes were split into two fractions, to which Compound 39 (5 μM, 60 min) or DMSO were added. […] MS1 peaks for probe-labeled quantified peptides were extracted with Xcalibur Qual Browser 2.2 (Thermo Scientific). […]
# (§3) HEK293T cells were transfected with wild type and an S115A mutant of PPT1, lysed, and treated with Compound 39 followed by CuAAC conjugation to an azide-Rh tag, PNGaseF treatment, and analysis by SDS-PAGE. […] S115 was identified as the site of Compound 39 labeling on PPT1 using a quantitative MS method termed isoTOP-ABPP. […]
# PPT1 (wild type, S115A) [2] = experiment: as above; assay type: biochemical, human; settings: transfected HEK293T lysates, CuAAC to azide-Rh, PNGaseF
# Experimental: as §1, §2, §3
# [3] = test system: SHs in PC3 cell proteomes; experiment: Probe-versus-probe ABPP-SILAC, PC3 proteomes; assay type: biochemical, human; settings: Compound 39 5 μM, 1 h versus FP-biotin 2.5 μM
# Experimental: Isotopically heavy- and light-labeled PC3 cells were treated with Compound 37 (1 μM) or DMSO for 4 h, respectively, lysed, and then treated Compound 39 (5 μM, 1 h). […] Among the handful of additional SH targets of Compound 37 were ABHD6 and PLA2G7, which were expected based on our ABPP-SILAC studies with FP-biotin (see FIG. 9), and protein-palmitoyl thioesterase 1 (PPT1), which was inhibited by more than 90%. […] Accordingly, PPT1 was not detected in our previous ABPP-SILAC studies with FP-biotin (see FIG. 9). The selective enrichment of PPT1 by Compound 39 was confirmed by performing a probe-versus-probe ABPP-SILAC study, where heavy and light PC3 proteomes were treated with FP-biotin (2.5 μM, 1 h) and Compound 39 (5 μM, 1 h), respectively. PPT1, along with two additional SHs LIPA and DDHD2, were preferentially enriched by Compound 39 over FP-biotin, while most of the other SHs were more strongly enriched by FP-biotin (see FIG. 13). A handful of SHs corresponding mostly to enzymes that were identified in our ABPP-SILAC studies as targets of Compound 37 (see FIGS. 9 and 12), were equivalently enriched by Compound 39 and FP-biotin (see FIG. 13).
# ABHD4 = target: T2, ABHD4 (Homo sapiens, UniProt Q8TB40); experiment: Gel-based competitive ABPP, recombinant enzyme in transfected HEK293T cell lysates; assay type: biochemical; design: myc-his; expressed in transfected cells; host or cells: HEK293T, transient transfection, pcDNA3.1/myc-his; lysate used in vitro; settings: competitive ABPP with FP-Rh, 30 min 37° C.
# T2 sequence (Q8TB40 1-342): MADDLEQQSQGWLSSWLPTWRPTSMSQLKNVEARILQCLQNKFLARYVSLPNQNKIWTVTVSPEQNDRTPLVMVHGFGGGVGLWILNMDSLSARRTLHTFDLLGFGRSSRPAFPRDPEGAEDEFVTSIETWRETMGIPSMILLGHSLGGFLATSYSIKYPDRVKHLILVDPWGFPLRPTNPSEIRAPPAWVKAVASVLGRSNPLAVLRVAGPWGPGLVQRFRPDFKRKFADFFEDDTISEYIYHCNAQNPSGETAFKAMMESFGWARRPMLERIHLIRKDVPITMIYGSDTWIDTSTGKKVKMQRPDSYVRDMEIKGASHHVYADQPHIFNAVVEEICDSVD
# Summary of the method: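 Human ABHD4 was expressed by transient transfection in HEK293T cells, and lysates were combined with those expressing ABHD3. Inhibition was monitored by gel-based competitive activity-based protein profiling, with compound applied either in situ to cells or in vitro to lysates.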
# T1 sequence (P50897 28-306 S115A): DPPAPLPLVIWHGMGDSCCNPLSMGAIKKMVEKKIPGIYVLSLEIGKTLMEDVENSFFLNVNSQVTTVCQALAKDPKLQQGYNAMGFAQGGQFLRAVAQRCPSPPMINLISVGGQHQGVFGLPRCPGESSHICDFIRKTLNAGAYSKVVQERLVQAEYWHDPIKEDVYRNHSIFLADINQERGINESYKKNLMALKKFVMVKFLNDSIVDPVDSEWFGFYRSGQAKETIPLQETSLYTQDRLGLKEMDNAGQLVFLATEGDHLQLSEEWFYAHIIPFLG
compound,measurement,setting,value
"C#CCOc1ccc(N2CCN(C(=O)ON3C(=O)C4CN(Cc5ccc(Oc6ccccc6)cc5)CCN4C3=O)CC2)cc1 (stereo not shown) [Compound 39, 1,3-dioxo-7-(4-phenoxybenzyl)hexahydroimidazo[1,5-a]pyrazin-2(3H)-yl 4-(4-(prop-2-yn-1-yloxy)phenyl)piperazine-1-carboxylate]",probe reactivity with recombinant hPPT1,"PPT1 (wild type, S115A) [1]",reacts; also recorded: reacted with PPT1
same,labeling of wild type PPT1 versus S115A mutant,"PPT1 (wild type, S115A) [2]","labels recombinant wild type PPT1, but not the catalytic serine mutant (S115A); also recorded: strong labeling of wild-type PPT1, but not the S115A mutant"
same,SHs preferentially enriched by Compound 39 over FP-biotin,[3],PPT1 and LIPA and DDHD2
same,inhibition of ABHD4 in transfected HEK293T cell proteome,ABHD4,inhibited ABHD4 in transfected HEK293T cell proteome in a concentration-dependent manner
